Assays:
[1] = tested on: noradrenergic neurons; details: Knoll et al., 1999, cited from earlier work
[2] = tested on: enhancer-sensitive neurons of isolated rat brain stem; details: optimal concentration for specific enhancer effect, 3-min collection period; review Knoll, 2005; cited from earlier work
[3] = tested on: Daoy HTB-186 cell line; assay: MTT proliferation assay, Daoy medulloblastoma cells; assay type: cell-based, human; details: 72 hours; for proliferation of cultured cells, monotherapy: nine concentrations between 10^-14 and 10^-6 M, MTT
Experimental: (§1) Human medulloblastoma cell line, Daoy was purchased from ATCCC, UW-228 was obtained from the courtesy of Professor Silber (University of Washington, Seattle, Wash., USA).
(§2) Daoy and UW-228-2 cell lines were maintained in culture medium (each 500 ml Minimum Essential Medium Eagle, Alpha Modification (M8042, Sigma, St Louis, USA) with 50 ml FCS (Gibco), 40 mg Gentamicin (Sandoz), 5 ml sodium-pyruvate (S8636, Sigma, St Louis, USA), 5 ml non-essential-amino acid solution (M7145, Sigma, St Louis, USA), 10 ml L-glutamin (Sigma, St Louis, USA) at 37° C. in humified 5% CO2.
(§3) In each well 3×10^3 Daoy or UW-228-2 cells were seeded in 96-well plates (Sarstedt), solved in 100 µl of its own medium with 10% FCS. 24 hours after seeding, cells were treated for 72 hours by drugs solved in further 100 μl medium. First, both cell lines were treated by (−)-BPAP and (−)-deprenil in monotherapy to determine its dose-effect curves in concentration of 10^−6, 10^−7, […], 10^−9, 10^−10, 10^−11, 10^−12, 10^−13 and 10^−14 M. In combined treatment 10^−3, 3.3×10^−4, […] and 3.7×10^−5 M of temozolomide (Schering Plough, USA) or 0.04, 0.2, 1, 5 μM of Cisplatin (Ebewe Pharma, Austria) or 0.04, 0.2, 1, 5 μM of etoposide (Ebewe Pharma, Austria) or 10^−7, 10^−6, 10^−5 and 10^−4 μM (UW228-2) or 0.001, 0.005, 0.025 and 0.125 μM (Daoy) of Vincristin (Richter Gedeon, Hungary) were applied in monotherapy or combined with 10^−13 or 10^−8 M of (−)-BPAP or (−)-deprenil.
(§4) Cell proliferation was evaluated by MTT (3-(4,5-Dimethylthiazol-2-yl)-2,5-diphenyltetrazolium bromide) assay (M5655, Sigma) after 72-hour treatment by the method described in manufacturer's protocol.

[4] = tested on: UW-228-2 cell line; assay: MTT proliferation assay, UW-228-2 medulloblastoma cells; assay type: cell-based, human; details: 72 hours; for proliferation of cultured cells, monotherapy: nine concentrations between 10^-14 and 10^-6 M, MTT
Experimental: as §1, §2, §3, §4

[5] = target: T1, MAO-A (Rattus norvegicus, UniProt P21396); details: Knoll et al., 1999; cited from earlier work
T1 construct: host or cells: animal dosed in mg/kg (in vivo)
T1 sequence (P21396 1-526): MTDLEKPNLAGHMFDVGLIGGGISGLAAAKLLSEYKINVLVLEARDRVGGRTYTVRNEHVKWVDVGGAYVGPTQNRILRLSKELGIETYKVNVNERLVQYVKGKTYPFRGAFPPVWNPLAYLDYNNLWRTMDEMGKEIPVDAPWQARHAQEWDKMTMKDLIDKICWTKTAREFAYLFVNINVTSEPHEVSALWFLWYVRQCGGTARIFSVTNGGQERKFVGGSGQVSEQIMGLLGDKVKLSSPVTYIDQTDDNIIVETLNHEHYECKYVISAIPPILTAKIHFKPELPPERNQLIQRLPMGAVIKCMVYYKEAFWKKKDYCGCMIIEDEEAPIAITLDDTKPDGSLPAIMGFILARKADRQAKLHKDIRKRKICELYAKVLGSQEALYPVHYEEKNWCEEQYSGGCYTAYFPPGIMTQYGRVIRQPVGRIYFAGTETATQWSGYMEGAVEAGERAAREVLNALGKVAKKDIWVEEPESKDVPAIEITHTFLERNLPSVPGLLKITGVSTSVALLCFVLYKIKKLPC

[6] = tested on: mammary tumors; details: ThyagaRajan et al. 1998; cited from earlier work
[7] = tested on: Wistar-Logan strain of rats; details: cited from earlier work
[8] = 10^-13 or 10^-8 M combined with temozolomide, Cisplatin, etoposide or Vincristin

| Compound | concentration range of the non-specific enhancer effect relative to the specific one ([1]; Knoll, Miklya, Knoll B, 2002) | concentration range of the specific enhancer effect [1] | released amount of labeled transmitter ([3H]-norepinephrine, [3H]-dopamine or [3H]-serotonin) versus absence of substance [2] | effectiveness of tumor-cell proliferation inhibiting agents in combination [3, 8] | proliferation of cultured cells, monotherapy [3] | proliferation of cultured cells, monotherapy ([3]; listed as BPAP) | effectiveness of tumor-cell proliferation inhibiting agents in combination [4, 8] | proliferation of cultured cells, monotherapy [4] | proliferation of cultured cells, monotherapy ([4]; listed as BPAP) | dose that blocks the activity of MAO-A [5] | dose inhibiting the development of mammary tumors [6] | proliferation of cultured cells, monotherapy ([3]; listed as (−)-deprenyl) | proliferation of cultured cells, monotherapy ([3]; listed as Deprenyl) | proliferation of cultured cells, monotherapy ([4]; listed as (−)-deprenyl) | proliferation of cultured cells, monotherapy ([4]; listed as Deprenyl) | rats that lived longer than the maximum lifespan ever observed in the strain ([7]; out of the 50 treated HP rats) | lifespan ([7]; sexually high performing (HP) rats treated for life, n=50, saline HP 151.24±1.36) | lifespan versus saline-treated peers ([7]; sexually low performing (LP) rats treated for life, n=49, saline LP 134.58±2.29 weeks) |
| --- | --- | --- | --- | --- | --- | --- | --- | --- | --- | --- | --- | --- | --- | --- | --- | --- | --- | --- |
| CCCN[C@H](CCC)Cc1cc2ccccc2o1 [(−)-BPAP, (R)-1-(benzofuran-2-yl)-2-propylamino pentane] | 10 million times higher concentration range | femto/picomolar concentration range | significantly higher | did not change the effectiveness | did not inhibit the proliferation | In none of the applied concentrations | did not change the effectiveness | did not inhibit the proliferation | In none of the applied concentrations | higher than 2 mg/kg |  |  |  |  |  |  |  |  |
| C#CCN(C)[C@H](C)Cc1ccccc1 [(−)-Deprenyl, (R)—N-methyl-N-(1-phenylpropan-2-yl)prop-2-yn-1-amine] |  |  | significantly higher |  |  |  |  |  |  |  | ≥ 0.25 mg/kg body weight | did not inhibit the proliferation | In none of the applied concentrations | did not inhibit the proliferation | In none of the applied concentrations | 17 rats | 185.30±1.96 weeks | lived significantly longer than their saline treated peers |

Reference: US10258598B2, “Compounds for use in the prevention or treatment of cancer” ([…], priority 2014, dated 2019)
